Reference: paper PMC12040169 (PLOS Biology, 2025)

Assay: in vitro
Settings: human, hela cells, % viability

SMILES | viability at 28.5 h, 10 µM
COc1ccccc1-c1nccnc1N[C@H]1CCN(Cc2ccccc2)C1 [CBK037626] | 94.4%
COc1ccccc1-c1ccc(NC(=O)c2ccc3c(c2)ncn3C)cc1 [CBK285652] | 103%
CCn1nc(C)c(C(C)NC(=O)CC(C)n2nc(C)cc2C)c1C (centres unmarked) [CBK281533] | 78.9%
Cc1csc2c(C3CCCN(C(=O)c4cnn(C)c4)C3)nc(C)n12 (centres unmarked) [CBK284595] | 98.5%
Cc1oc2c(c1C(=O)NC(C)c1ccccn1)CCCC2 (centres unmarked) [CBK281825] | 109%
O=C(CN1C2CCC1CC(O)(c1ccco1)C2)Nc1ccccc1F (centres unmarked) [CBK284109] | 96.7%
Cc1ccc(-c2ccccc2CC2(C(=O)Nc3cccc(C(N)=O)c3)CCOCC2)c(C)c1 [CBK286423] | 92.7%
CC(=O)N1CCc2cc(C(=O)N[C@@H](Cc3ccccc3)C(=O)O)ccc21 [CBK298303] | 102%
C=CCn1c2ccccc2c2nnc(SC(CC)C(=O)N3c4ccccc4Sc4ccccc43)nc21 (centres unmarked) [CBK263040] | 90.7%
COc1cc(CN2CCC3(CC2)CN(CC(N)=O)c2ccccc23)cc(OC)c1OC [CBK126774] | 93.1%
FC(F)(F)c1cccc(CC2CSC(=S)N2)c1 (centres unmarked) [CBK022895] | 92.2%
O=C(Nc1cccc(S(=O)(=O)N2CCOCC2)c1)c1cc2ccccc2oc1=O [CBK268170] | 107%
CCN1CCN(Cc2c(C(C)(C)C)[nH]c3ncccc23)CC1 [CBK285341] | 106%
Cc1cc(=O)nc(N/C(N)=N/c2cccc([N+](=O)[O-])c2)[nH]1 [CBK264857] | 102%
O=C(c1cc2c(F)cccc2[nH]1)N(CCO)CCc1ccncc1 [CBK281644] | 98.3%
Cc1ccc(S(=O)(=O)CC(CN2CCOCC2)N2CCOCC2)cc1 (centres unmarked) [CBK264590] | 99.1%
COc1ccc(C(NC(=O)C2CC=CCC2C(=O)O)c2ccccc2)cc1 (centres unmarked) [CBK264264] | 91.6%
Nc1ncc(-c2cccc(OC(F)(F)F)c2)nc1-c1ccc(C(=O)N2CCOCC2)cc1 [CBK064091] | 96.8%
O=C(Nc1ccc(Cl)c(S(=O)(=O)N2CCCC2)c1)c1cnccn1 [CBK295176] | 87.9%
O=C(Cc1ccc([N+](=O)[O-])cc1)Nc1ccc(O)cc1C(=O)O [CBK265977] | 97.6%
COc1cc(CNc2cccc(-c3ccsc3)n2)cc(OC)c1 [CBK037592] | 97.8%
Cc1ccc(-c2cncc(N(C)CCN(C)C)n2)cc1C [CBK065990] | 112%

SMILES | viability at 28.5 h, 10 µM
Clc1ccc(OCc2nc3ccccc3n2CCOc2ccccc2)c(Cl)c1 [CBK264728] | 94.8%
O=C(CN1CCN(C(c2ccccc2)c2ccccc2)CC1)Nc1c2c(nc3ccccc13)CCC2 [CBK278299G] | 92.7%
CC(C)(C)NC(=O)N1CCC(=O)N1 [CBK007341] | 95.9%
COC(=O)c1cc(-c2ccccc2)sc1NC(=O)CSc1ncnc2sc3c(c12)CCC3 [CBK265978] | 97.4%
CN1CCN(Cc2n[nH]c(=S)n2-c2cccc(C#N)c2)CC1 [CBK015465] | 112%
Cc1ccccc1Cc1cccc(C2CCN(S(=O)(=O)c3cn[nH]c3)CC2)n1 [CBK286125] | 90.8%
Nc1nc2c(O)cccc2s1 [CBK003892B] | 85.6%
Cc1ccc(Cl)cc1N(CC(=O)O)S(=O)(=O)c1ccccc1 [CBK262424] | 93%
O=C1CN(C(=O)NCc2ccc(Cl)cc2)CCN1 [CBK155867] | 109%
O=C(Cn1c(NCCO)nc2ccccc21)c1ccco1 [CBK264127B] | 96.3%
O=c1c(Cc2ccc(Cl)cc2)c(O)ccn1Cc1ccncc1 [CBK291161] | 98.7%
CCCCC(c1cccnc1)N(C)C(=O)c1cccn(C)c1=O (centres unmarked) [CBK307496] | 114%
CC(C)c1cc(C(=O)N2CCN(C)C(=O)C2Cc2ccccc2-c2ccc(F)cc2)[nH]n1 (centres unmarked) [CBK285833] | 92.1%
Brc1ccc(-c2nc(CSc3nnnn3C3CCCCC3)no2)cc1 [CBK026913] | 110%
CC(C)n1nccc1C(=O)NCC(c1ccc(F)cc1)N1CCCC1 (centres unmarked) [CBK283025] | 87.3%
CS(=O)(=O)N1CCN(Cc2cc(Br)ccc2O)CC1 [CBK263620G] | 93.9%
CC(C)n1c(=O)n(CC(=O)NC2CCCCC2)c2cccnc21 [CBK283696] | 99%
COc1ccc(CN(C)CCN(C)C)c(O)c1 [CBK261915] | 114%
CC(=O)NC(O)C(=O)c1cccs1 (centres unmarked) [CBK027756] | 111%
COc1cc(C=Cc2nc3cc(Cl)ccc3s2)ccc1OCC(=O)O [CBK297886] | 96.4%
C=CCNC(=O)N[C@H]1CO[C@H]2[C@@H]1OC[C@H]2OC(=O)Nc1ccccc1 [CBK289466] | 115%
CCCN(C)Cc1ccc(-c2cn(CC(=O)NCc3ccc(C(F)(F)F)cc3)nn2)cc1 [CBK164719] | 92.9%

SMILES | viability at 28.5 h, 10 µM
Oc1ccccc1C(=S)N1CCCCC1 [CBK027552] | 92.8%
Cc1ncc(C(=O)NC2(c3ccccc3F)CCCC2)c(C)n1 [CBK283274] | 84.5%
O=C(O)C1CCCCC1C(=O)Nc1cccc2ccccc12 (centres unmarked) [CBK261569] | 101%
COc1cc(/C=N/n2c(S)nnc2-c2cccnc2)ccc1OCc1ccccc1 [CBK265307] | 110%
O=C(O)c1ccc(NS(=O)(=O)c2cc(C(=O)O)ccc2Br)cc1 [CBK113164] | 106%
Cc1nc(-c2ccc(S(=O)(=O)NCC3CC3)s2)cs1 [CBK085873] | 83.9%
NC(=O)c1ccccc1NC(=S)NC(=O)c1cc2ccccc2o1 [CBK265633] | 81.3%
Cc1cccn2c(CN3CCC(O)CC3)c(C(=O)N3CCOCC3)nc12 [CBK306546] | 104%
O=C1/C(=C/c2ccc(OCc3cccc4ccccc34)cc2)SC(=S)N1Cc1cccnc1 [CBK264669] | 95.6%
O=C(Nc1ccc2n(c1=O)C[C@H]1C[C@@H]2CN(c2ncccn2)C1)c1ccccc1 [CBK289077] | 86.4%
Cc1cc(-c2cnoc2C2CCCN(C(=O)c3cccs3)C2)on1 (centres unmarked) [CBK284480] | 102%
O=C(Nc1cccc(-c2nc3ncccc3o2)c1)c1ccc(OCc2ccccc2)cc1 [CBK263139] | 102%
Cc1nc(S(=O)(=O)CCn2cccn2)n(C2CCCC2)c1C [CBK305138] | 89%
CCn1c(C2CCN(C(=O)c3cc(C(F)(F)F)n[nH]3)CC2)nn(C)c1=O [CBK307184] | 88.9%
COC(=O)Cc1c(O)nn(C)c1Cc1cccc(C(F)(F)F)c1 [CBK006608] | 99.5%
Cc1cc2nc(NCC3CCCO3)c3ccccc3n2n1 (centres unmarked) [CBK305871] | 99.6%
CC(C)Cn1cnc(S(=O)(=O)N2CCN(CC(=O)NC3CC3)CC2)c1 [CBK304223] | 95.8%
c1ccc2c(c1)[nH]c1nc(SCCN3CCCCC3)nnc12 [CBK263249] | 88.7%
CC(CN(C)C(=O)Cn1cccc(C(=O)Nc2ccc(F)cc2)c1=O)c1ccccc1 (centres unmarked) [CBK286065] | 92.5%
CSCCN1CCCC2(CCN(C(=O)c3ccoc3)C2)C1 (centres unmarked) [CBK132835] | 88.7%
NNC(=O)CCc1nc2ccc(O)cc2[nH]1 [CBK263633] | 93%
